Measured values as given in US20070053834A1, “Radioligands for the TRP-M8 receptor and methods therewith” (priority 2003, published 2007).

Molecular target: T1, TRP-M8 receptor (Homo sapiens, UniProt Q7Z2W7)
Assay: FLIPR calcium influx assay in HEK cells transfected with human TRP-M8
Format: cell-based
Parameters: expressed in transfected cells; host or cells: HEK (human embryonic kidney) cells, permanently transfected
Conditions: HEK cells with human TRP-M8, Fura-2, 29 or 37° C.
Excerpt: (§1) Cooling Actions on Skin. […] In Vitro Assays for TRP-M8 Activation. […] Brit. J Pharmacol. 2004 Feb; 141(4):737-45], and by A. K. Vogt-Eisele, D. Bura, H. Hatt, and E. T. Wei. [N-Alkylcarboxamide Cooling Agents: Activities on Skin and Cells with TRPM8 and TRPA1 Receptors. Acta Dermato-Venereol. 85: 468, 2005.] The data here were collected for the applicant by Dr. Afrodite Lourbakos of Unilever Research and Development, the Netherlands, using similar transfection methods and a FLIPR assay system. For the patch-clamp studies, using measurements of intracellular voltage changes, some of the data reported here were collected by Dr. Matthias Bödding of the University of the Saarland, and by Dr. Angela Vogt-Eisele of the Ruhr University at Bochum, Germany. FLIPR assay Human embryonic kidney (HEK) cells were permanently trausfected with plasmids containging the cDNA coding for the gene for the human TRP-M8 receptor. These cells were then incubated with a calcium fluorescence indicator (Fura-2) and incubated at either 29 or 37° C. These cells were then distributed into a 96-well fluorescence-plate image reader with automated drug dilution and computerized software for dose-response analysis. Cacium ion influx into cells after stimulation with compounds was quantified in fluorescence units. Compounds were dissolved in DMSO by ultrasonication to a 0.1 M solution. 5 μl of this stock was added to 5 mg of cyclodextrin and 5 ml of 140 Na-Tyrode, to achieve various final test concentrations.

T1 sequence (Q7Z2W7 whole entry): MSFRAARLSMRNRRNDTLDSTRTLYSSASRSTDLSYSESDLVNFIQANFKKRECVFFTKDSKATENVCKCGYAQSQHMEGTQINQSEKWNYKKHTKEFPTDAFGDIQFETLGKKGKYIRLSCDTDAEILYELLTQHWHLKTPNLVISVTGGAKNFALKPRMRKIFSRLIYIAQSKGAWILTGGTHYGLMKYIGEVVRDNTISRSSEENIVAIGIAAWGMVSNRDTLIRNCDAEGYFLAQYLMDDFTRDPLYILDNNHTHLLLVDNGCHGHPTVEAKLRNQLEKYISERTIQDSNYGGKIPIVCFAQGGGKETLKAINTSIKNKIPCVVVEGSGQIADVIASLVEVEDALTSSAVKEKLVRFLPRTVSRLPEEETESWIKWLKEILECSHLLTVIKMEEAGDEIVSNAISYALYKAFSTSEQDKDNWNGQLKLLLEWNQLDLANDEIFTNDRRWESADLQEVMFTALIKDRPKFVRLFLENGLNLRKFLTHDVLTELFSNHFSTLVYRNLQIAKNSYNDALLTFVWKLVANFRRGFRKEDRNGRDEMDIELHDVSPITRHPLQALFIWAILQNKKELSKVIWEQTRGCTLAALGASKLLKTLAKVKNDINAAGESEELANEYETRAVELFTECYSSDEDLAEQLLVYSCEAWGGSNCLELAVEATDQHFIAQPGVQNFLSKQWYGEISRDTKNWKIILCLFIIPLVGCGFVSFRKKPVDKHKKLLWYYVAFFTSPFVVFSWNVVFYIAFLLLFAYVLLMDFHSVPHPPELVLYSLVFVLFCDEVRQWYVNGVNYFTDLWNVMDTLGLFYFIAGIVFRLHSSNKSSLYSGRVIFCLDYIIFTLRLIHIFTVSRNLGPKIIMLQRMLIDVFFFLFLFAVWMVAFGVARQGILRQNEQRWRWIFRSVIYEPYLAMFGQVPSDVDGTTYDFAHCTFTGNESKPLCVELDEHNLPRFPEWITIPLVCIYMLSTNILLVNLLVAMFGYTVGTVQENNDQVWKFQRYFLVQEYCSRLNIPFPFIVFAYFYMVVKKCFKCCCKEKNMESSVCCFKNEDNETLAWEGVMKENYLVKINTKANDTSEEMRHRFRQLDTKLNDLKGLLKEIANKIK

EC50 [nM] | SMILES
6000 | CC1CCC(C(C)C)C(C(=O)Nc2ccc(S(=O)(=O)Nc3ncccn3)cc2)C1 (stereo not drawn) [CPS-125, 2-Isopropyl-5-methyl-cyclohexanecarboxylic acid [4-(pyrimidin-2-ylsulfamoyl)-phenyl]-amide]
6000 | COc1cccc(NC(=O)C2CC(C)CCC2C(C)C)c1 (stereo not drawn) [CPS-141]
1300 | COc1ccc(NC(=O)C2CC(C)CCC2C(C)C)cc1F (stereo not drawn) [CPS-113, N-(3′-fluoro, 4′-methoxyphenyl)-2-isopropyl-5-methyl-cyclohexanecarboxamide]
10000 | CC1CCC(C(C)C)C(C(=O)Nc2ccc(I)cc2)C1 (stereo not drawn) [CPS-120]
6000 | CC1CCC(C(C)C)C(C(=O)Nc2ccc(Br)cc2)C1 (stereo not drawn) [CPS-123]
> 100000 | CC1CCC(C(C)C)C(C(=O)Nc2ccc(OC(F)(F)F)cc2)C1 (stereo not drawn) [CPS-127]
1300 | CC1CCC(C(C)C)C(C(=O)Nc2ccc(F)cc2)C1 (stereo not drawn) [CPS-124, N-(4′-fluorophenyl)-2-isopropyl-5-methylcyclohexanecarboxamide]
500 | CCOc1ccc(NC(=O)C2CC(C)CCC2C(C)C)cc1 (stereo not drawn) [CPS-128]

Continued, molecule first:

SMILES | EC50 [nM]
O=C1NC(c2cccc([N+](=O)[O-])c2)=CCN1c1ccccc1O [icilin, reference compound] | 800
COc1ccc(NC(=O)C2CC(C)CCC2C(C)C)cc1 (stereo not drawn) [CPS-112 (WS-12), N-(4′-methoxyphenyl)-2-isopropyl-5-methylcyclohexanecarboxamide] | 600
CC1CCC(C(C)C)C(C(=O)Nc2ccc([N+](=O)[O-])c(C(F)(F)F)c2)C1 (stereo not drawn) [CPS-138] | > 100000

Molecular target: T1, TRP-M8 receptor
Assay: Patch-clamp whole-cell recordings in TRP-M8 transfected HEK cells
Format: cell-based
Parameters: expressed in transfected cells; host or cells: HEK (human embryonic kidney) cells, permanently transfected
Conditions: whole-cell configuration, room temperature (20-23° C.)
Excerpt: as §1
Patch-Clamp Electrophysiological Recordings. HEK cells were prepared as above. Membrane currents were recorded in the whole-cell configuration using an EPC-9 amplifier (HEKA Elektronik, Lambrecht, Germany) as described previously (Bödding et al. 2002). […] Extracellular solution contained (in mM): 145 NaCl, 2 CaCl2, 2.8 KCl, 2 MgCl2, 11 glucose, 10 HEPES, adjusted to pH 7.2 with NaOH. Drugs were applied in the bath solution by a custom-made local perfusion system. The series resistance was compensated for 80 % and ranged between 5 and 10 MΩ. Currents were filtered using an 8-pole Bessel filter at 2.9 kHz and digitised at 100 μs. Voltage ramps (−110 mV to 90 mV in 50 ms) were applied at 0.5 Hz from a holding potential of −10 mV using PULSE software (HEKA Electronics). Several parameters such as capacitance, series resistance and holding current were monitored simultaneously at a slower rate (2 Hz) using the X-Chart display (HEKA Electronics). A liquid junction potential of 10 mV was applied to all voltages. All experiments were carried out at room temperature (20-23° C.). Internal solutions were kept on ice to minimize hydrolysis of ATP.

EC50 [nM] | SMILES
100 | CC1CCC(C(C)C)C(C(=O)N(C)C[C@H](O)c2cccc(O)c2)C1 (stereo partly drawn) [CPS-195, 2-Isopropyl-5-methyl-cyclohexanecaboxylic acid [2-hydroxy-2-(3-hydroxy-phenyl)-ethyl]-methyl-amide]
3000 | CC1CCC(C(C)C)C(C(=O)Nc2ccc(S(=O)(=O)Nc3ncccn3)cc2)C1 (stereo not drawn) [CPS-125, 2-Isopropyl-5-methyl-cyclohexanecarboxylic acid [4-(pyrimidin-2-ylsulfamoyl)-phenyl]-amide]
1200 | COc1ccc(NC(=O)C2CC(C)CCC2C(C)C)cc1F (stereo not drawn) [CPS-113, N-(3′-fluoro, 4′-methoxyphenyl)-2-isopropyl-5-methyl-cyclohexanecarboxamide]
300 | COc1ccc(NC(=O)C2CC(C)CCC2C(C)C)c(I)c1 (stereo not drawn) [CPS-129, N-(2′-iodo-4′methoxyphenyl)-2-isopropyl-5-methylcyclohexanecarboxamide]
1200 | CC1CCC(C(C)C)C(C(=O)Nc2ccc(F)cc2)C1 (stereo not drawn) [CPS-124, N-(4′-fluorophenyl)-2-isopropyl-5-methylcyclohexanecarboxamide]

Further lines, the molecule ahead of its results:

SMILES | EC50 [nM]
O=C1NC(c2cccc([N+](=O)[O-])c2)=CCN1c1ccccc1O [icilin, reference compound] | 1400
COc1ccc(NC(=O)C2CC(C)CCC2C(C)C)cc1 (stereo not drawn) [CPS-112 (WS-12), N-(4′-methoxyphenyl)-2-isopropyl-5-methylcyclohexanecarboxamide] | 200

Molecular target: T1, TRP-M8 receptor
Assay: Cold sensation threshold on tongue (filter paper test)
Format: in vivo
Parameters: The endogenous TRP-M8 receptor is a physiological receptor designed to detect temperature changes; from tissue; host or cells: tongue (sensory nerve endings), in vivo
Conditions: filter paper 1 × 1 cm impregnated with compound, on tongue, 30 sec; presence or absence of cooling
Excerpt: In Vivo Assays for TRP-M8 Activation. The endogenous TRP-M8 receptor is a physiological receptor designed to detect temperature changes in its environment and to transmit this signal to the central nervous system so that appropriate regulatory responses can be initiated (e.g. vasoconstriction to reduce heat loss, putting on warmer clothing, avoiding the cold environment).
The TRP-M8 receptor on cold sensory nerve endings and on malignant cells, for example in the prostate, are biochemically identical proteins. Thus, the potency of a molecule to elicit cold sensations, for example on the tongue or skin, was used as surrogate index of the binding affinity of the molecule for the TRP-M8 receptor. A number of potent “N-radiohaloaryl-carboxamides” were synthesized and tested for use as precursors of the inventive compounds and the results are shown in Table 1.

Cold Sensation Threshold on Tongue [µg] | SMILES
5 | COc1ccc(NC(=O)C2(C(C)C)CCCCCC2)cc1OC [N-(3′,4′-dimethoxyphenyl)-1-isopropylcycloheptanecarboxamide]
1 | CC1CCC(C(C)C)C(C(=O)Nc2ccc(O)cc2)C1 (stereo not drawn) [N-(4′-hydroxyphenyl)-2-isopropyl-5-methylcyclohexanecarboxamide]
1 | Cc1ccc(NC(=O)C(C)(C(C)C)C(C)C)c(C)c1 [N-(2′,4′-dimethylphenyl)-2-isopropyl-2,3-dimethylbutyramide]
0.1 | Cc1ccc(NC(=O)C2CC(C)CCC2C(C)C)cc1O (stereo not drawn) [N-(3′-hydroxy-4′-methylphenyl)-2-isopropyl-5-methylcyclohexanecarboxamide]
0.5 | CC1CCC(C(C)C)C(C(=O)Nc2ccccc2O)C1 (stereo not drawn) [N-(2′-hydroxyphenyl)-2-isopropyl-5-methylcyclohexanecarboxamide]
20 | CC1CCC(C(C)C)C(C(=O)NCc2ccccc2)C1 (stereo not drawn) [N-phenylmethyl-2-isopropyl-5-methylcyclohexanecarboxamide]
0.5 | COc1ccc(NC(=O)C(C)(C(C)C)C(C)C)cc1 [N-(4′-methoxyphenyl)-2-isopropyl-2,3-dimethylbutyramide]
3 | Cc1ccc(NC(=O)C(C)(C(C)C)C(C)C)cc1C [N-(3′,4′-dimethylphenyl)-2-isopropyl-2,3-dimethylbutyramide]
15 | Cc1ccc(NC(=O)C2(C(C)C)CCCCCC2)c(C)c1 [N-(2′,4′-dimethylphenyl)-1-isopropylcycloheptanecarboxamide]
0.5 | CC1CCC(C(C)C)C(C(=O)Nc2ccc(F)cc2)C1 (stereo not drawn) [N-(4′-fluorophenyl)-2-isopropyl-5-methylcyclohexanecarboxamide]
0.2 | COc1ccc(NC(=O)C2(C(C)C)CCCCCC2)c(C)c1 [N-(4′-methoxy-2′-methylphenyl)-1-isopropylcycloheptanecarboxamide]
6 | CCC1(C(=O)Nc2ccc(OC)cc2)CCCCCC1C (stereo not drawn) [N-(4′-methoxyphenyl)-1-ethyl-2-methylcycloheptanecarboxamide]
20 | CC1CCC(C(C)C)C(C(=O)Nc2ccccc2)C1 (stereo not drawn) [N-phenyl-2-isopropyl-5-methylcyclohexanecarboxamide]
0.1 | Cc1ccc(NC(=O)C2CC(C)CCC2C(C)C)c(C)c1 (stereo not drawn) [N-(2′,4′-dimethylphenyl)-2-isopropyl-5-methylcyclohexanecarboxamide]
15 | Cc1ccc(NC(=O)C2(C(C)C)CCCCCC2)cc1C [N-(3′,4′-dimethylphenyl)-1-isopropylcycloheptanecarboxamide]
0.1 | COc1ccc(NC(=O)C2CC(C)CCC2C(C)C)cc1 (stereo not drawn) [N-(4′-methoxyphenyl)-2-isopropyl-5-methylcyclohexanecarboxamide]
1 | Cc1ccc(NC(=O)C2(C(C)C)CCCCCC2)cc1O [N-(3′-hydroxy-4′-methylphenyl)-1-isopropylcycloheptanecarboxamide]
2 | CC(=O)c1ccc(NC(=O)C2CC(C)CCC2C(C)C)cc1 (stereo not drawn) [N-(4′-acetylphenyl)-2-isopropyl-5-methylcyclohexanecarboxamide]
8 | CC1CCC(C(C)C)C(C(=O)Nc2ccc(Cl)cc2)C1 (stereo not drawn) [N-(4′-chlorophenyl)-2-isopropyl-5-methylcyclohexanecarboxamide]
0.3 | CC1CCC(C(C)C)C(C(=O)Nc2ccc([N+](=O)[O-])cc2)C1 (stereo not drawn) [N-(4′-nitrophenyl)-2-isopropyl-5-methylcyclohexanecarboxamide]
5 | CCOC(=O)c1ccc(NC(=O)C2CC(C)CCC2C(C)C)cc1 (stereo not drawn) [N-(4′-ethoxycarbonylphenyl)-2-isopropyl-5-methylcyclohexanecarboxamide]
2 | COc1ccc(NC(=O)C(C)(CC(C)C)C(C)C)cc1 (stereo not drawn) [N-(4′-methoxyphenyl)-2-isopropyl-2,4-dimethylpentanamide]

Same assay, conditions: oral

oral cooling threshold [µg] | SMILES
0.2 | CCNC(=O)C1CC(C)CCC1C(C)C (stereo not drawn) [N-ethyl p-menthane-3-carboxamide, reference compound]
1.1 | CNC(=O)C1CC(C)CCC1C(C)C (stereo not drawn) [N-methyl p-menthane-3-carboxamide, reference compound]
